The source of these data is PubChem BioAssay (NCI).

Among the test systems are A498 renal; ACHN renal; OVCAR-4 ovarian; RPMI-8226 leukemia; SK-MEL-28 melanoma; SK-OV-3 ovarian; SR leukemia; U251 CNS; LOX IMVI melanoma; NCI-H226 lung.
Common to all, as to assay: NCI-60 cell line screen, 48 h

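These data come from cells grown in 96-well plates and exposed to compound for 48 hours at five concentrations. GI50 is the concentration that inhibits growth by half. At the TGI there is no net growth.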 Where only a bound is given, the exact number is not on record here.

Consider `CN(C)CCC(/C=C/c1ccccc1)=N\Nc1ccc(Cl)cc1Cl`, for which the TGI in the assay with A498 renal was 30.5 µM; in the assay with ACHN renal, 25.5 µM; with OVCAR-4 ovarian it was 29.7 µM; in the assay with RPMI-8226 leukemia it was 30.1 µM; in the assay on SK-MEL-28 melanoma, 27.3 µM; in the assay with SK-OV-3 ovarian, 22.8 µM. Further, the TGI in the assay on SR leukemia was determined as 23.9 µM; in the assay with U251 CNS, 24.7 µM.

For the compound `Cc1cc(N(CCC#N)CCC#N)ccc1/C=C1/N=C(c2ccccc2)N(N)C1=O`, the TGI in the assay on A498 renal, with ACHN renal, with LOX IMVI melanoma, with NCI-H226 lung, in the assay on OVCAR-4 ovarian and in the assay on RPMI-8226 leukemia was above 100 µM in each case. The TGI in the assay with SK-MEL-28 melanoma, in the assay on SK-OV-3 ovarian and in the assay on U251 CNS was above 100 µM throughout.

Turning to `Cc1cc2c(c(C(=O)O)c1C)-c1cccc(F)c1C2=O`, the TGI in the assay with ACHN renal, with LOX IMVI melanoma, in the assay on NCI-H226 lung, in the assay on OVCAR-4 ovarian, with RPMI-8226 leukemia and in the assay with SK-MEL-28 melanoma was above 100 µM throughout. In addition, the TGI in the assay with SK-OV-3 ovarian and with U251 CNS was above 100 µM throughout.

As for `COC1O[C@@H]2C[C@H]3C(C)(C)CCC[C@]3(C)C3=CCCC1[C@@]32C` (stereo partly drawn), the GI50 in the assay with A498 renal, with ACHN renal, in the assay on LOX IMVI melanoma, in the assay with NCI-H226 lung, in the assay with OVCAR-4 ovarian and in the assay on RPMI-8226 leukemia was above 100 µM throughout. Further, the GI50 in the assay on SK-MEL-28 melanoma and in the assay with U251 CNS was above 100 µM each time. Also, the TGI in the assay with A498 renal, with ACHN renal, in the assay on LOX IMVI melanoma, with NCI-H226 lung, with OVCAR-4 ovarian and in the assay with RPMI-8226 leukemia was above 100 µM throughout. In addition, the TGI in the assay with SK-MEL-28 melanoma and with U251 CNS was above 100 µM throughout.

For `O=P1(Oc2ccccc2)C(c2ccccc2)C(c2ccccc2)=NN1c1ccccc1` (stereo not drawn), the TGI in the assay on A498 renal turned out to be 84.6 µM; in the assay with ACHN renal, 77.6 µM; in the assay with LOX IMVI melanoma it was 31.6 µM; in the assay on NCI-H226 lung, 55 µM; in the assay with OVCAR-4 ovarian, 86.3 µM; with SK-MEL-28 melanoma, 64.2 µM. The TGI with SK-OV-3 ovarian came to 54.4 µM; with U251 CNS, 42.2 µM.

As for `CC1(C)OCC(C(O)C2OC(C)(C)OC2/C=N\O)O1` (stereo not drawn), the TGI in the assay with A498 renal, in the assay with ACHN renal, in the assay on LOX IMVI melanoma, with RPMI-8226 leukemia, with SK-MEL-28 melanoma and with SK-OV-3 ovarian was above 100 µM each time. The TGI in the assay with U251 CNS was above 100 µM.

With `COC(CN1C=C(Sc2ccccc2)CC1)OC`, the TGI was above 100 µM in the assay with A498 renal; above 100 µM with ACHN renal; 56.3 µM with LOX IMVI melanoma; above 100 µM in the assay on NCI-H226 lung; above 100 µM with OVCAR-4 ovarian; 50.7 µM with RPMI-8226 leukemia. The values for the TGI with SK-MEL-28 melanoma and in the assay on SK-OV-3 ovarian were above 100 µM and 93 µM, respectively.

`COc1ccc(/C=N/NC(=O)Cn2c(-c3ccc(S(C)(=O)=O)cc3)nc3cc(Cl)ccc32)cc1`: the GI50 in the assay with A498 renal is 0.79 µM; in the assay on ACHN renal it was 2.13 µM; in the assay with LOX IMVI melanoma, 1.4 µM; in the assay with NCI-H226 lung, 1.63 µM; in the assay with OVCAR-4 ovarian, 2.53 µM; in the assay with RPMI-8226 leukemia, 1.43 µM. For the same compound, the values for the GI50 with SK-MEL-28 melanoma, in the assay on SK-OV-3 ovarian and with U251 CNS were 4.48 µM, 1.72 µM and 1.16 µM, respectively. The TGI was 3.65 µM in the assay with A498 renal; above 50 µM in the assay on ACHN renal; above 50 µM in the assay on LOX IMVI melanoma; above 50 µM in the assay with NCI-H226 lung; above 50 µM in the assay with OVCAR-4 ovarian; 11.4 µM in the assay on RPMI-8226 leukemia. Also, the TGI in the assay on SK-MEL-28 melanoma, in the assay with SK-OV-3 ovarian and in the assay with U251 CNS was above 50 µM each time.

With `Nc1ccc(-c2nc3ccccc3[nH]2)c2ccccc12`, the GI50 is 1.07 µM in the assay on A498 renal; 8.41 µM with ACHN renal; 4.97 µM in the assay with LOX IMVI melanoma; 8.44 µM in the assay with NCI-H226 lung; 8.26 µM in the assay on OVCAR-4 ovarian; 2.64 µM in the assay with RPMI-8226 leukemia. The GI50 in the assay on SK-MEL-28 melanoma was 4.27 µM; in the assay on SK-OV-3 ovarian it was 3.23 µM; with U251 CNS, 4.12 µM. Besides, the TGI in the assay with A498 renal is 15 µM; with ACHN renal, 41.3 µM; in the assay on LOX IMVI melanoma it was 48.1 µM; with NCI-H226 lung, 37.9 µM; with OVCAR-4 ovarian it was above 72.5 µM; in the assay with RPMI-8226 leukemia it was above 37 µM. For the same compound, the TGI in the assay on SK-MEL-28 melanoma is above 62.1 µM; with SK-OV-3 ovarian, 57.5 µM; in the assay on U251 CNS it was 30.6 µM.

As to `C=C1CCC2[C@@H](CCC3[C@]2(C)CCC[C@]3(C)C(=O)OC)[C@@H]1CC=O` (stereo partly drawn), the GI50 in the assay on A498 renal is 87.8 µM; in the assay with RPMI-8226 leukemia, 19.1 µM; with SK-OV-3 ovarian, above 100 µM; with U251 CNS it was 46 µM. For the same compound, the TGI with A498 renal was above 100 µM; with ACHN renal, 82 µM; with NCI-H226 lung, above 100 µM; with OVCAR-4 ovarian, 85.2 µM; in the assay with RPMI-8226 leukemia it was 57.6 µM; in the assay with SK-MEL-28 melanoma it was 91.8 µM. In addition, the TGI with SK-OV-3 ovarian and in the assay on U251 CNS was above 100 µM in each case.

As to `CN1CCN(Cc2ccc(NC(=O)c3[nH]ncc3Nc3ncnc4sc5c(c34)CCCC5)cc2)CC1`, the GI50 with A498 renal was 0.0865 µM; in the assay with ACHN renal it was 0.19 µM; with LOX IMVI melanoma, 0.289 µM; in the assay with OVCAR-4 ovarian, 0.327 µM; in the assay on RPMI-8226 leukemia, 0.37 µM; in the assay with SK-MEL-28 melanoma it was 0.512 µM. The GI50 is 0.198 µM in the assay with SK-OV-3 ovarian and 0.173 µM with SR leukemia. The TGI in the assay with A498 renal was 0.668 µM; with ACHN renal it was 0.969 µM; in the assay with LOX IMVI melanoma, 1.71 µM; in the assay with OVCAR-4 ovarian, 1.84 µM; with RPMI-8226 leukemia it was 1.04 µM; in the assay with SK-MEL-28 melanoma it was 2.08 µM. The TGI stood at 3.01 µM with SK-OV-3 ovarian and 0.527 µM in the assay with SR leukemia.
